Tests used:
HEK293 cells [1] = assay: Preliminary screening as DNA vectors, GFP transfection of HEK293 cells; type: cell-based; conditions: HEK293 cells; lipid/DOPE liposome with 75 ng plasmid DNA (psin-EGFP-IRES-Puro); number of cells expressing GFP divided by total number of nuclei (Hoechst)
Procedure, shortened: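 HEK293 cells in DMEM/10% FBS transfected with 75 ng EGFP plasmid per well complexed with amino lipid/DOPE liposomes in pH 5.6 sodium acetate. Hoechst nuclear stain added 20-24 h post-transfection, then cells cultured another 20-24 h. Confocal imaging gives GFP-positive cells as % of total nuclei.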

HEK293 cells [2] = assay: Preliminary screening as mRNA vectors, EGFP mRNA transfection of HEK293 cells; type: cell-based; conditions: HEK293 cells, 96-well plates, EGFP mRNA 50 ng per well; percentage of GFP fluorescent cells relative to total number of cells (Hoechst)
Procedure, shortened: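 HEK293 cells in DMEM plus 10% FBS transfected in 96-well format with 50 ng EGFP mRNA per well; Lipofectamine2000 served as positive control. Read-out is the percentage of GFP-fluorescent cells among total cells, counted by Hoechst nuclear stain.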

Structure (SMILES)	Absolute DNA transfection efficiency in HEK293 cells (HEK293 cells [1]) [%]	Absolute mRNA transfection efficiency in HEK293 cells (HEK293 cells [2]) [%]
CCCCCCCCCCCCCCCNc1nc(NCCCCCCCC)nc(NCC2CCN(C)CC2)n1 [Compound N8N15D10]	3.2	3.3
CCCCCCCCCCCSc1nc(NCCN(C)C)nc(SCCCCCCCCCC)n1 [Compound S10S11D1]	7.0	1.2
CCCCCCCCCCCCCNc1nc(NCCCCCCC)nc(NCCCN2CCN(C)CC2)n1 [Compound N7N13D9]	1.3	0.1
CCCCCCCCCCCCN(CCCCCCCCCCCC)c1nc(NCCCCCCC)nc(NCCN2CCCCC2)n1 [N7^2N12D4]	1.2	3.7
CCCCCCCCCCCCCCSc1nc(NCCCN2CCN(C)CC2)nc(SCCCCCCCCCCCCCC)n1 [Compound S14S14D9]	0.0	0.0
CCCCCCCCCCCCCNc1nc(NCCCCCC)nc(NCCN2CCCCC2)n1 [Compound N6N13D4]	0.0	0.6
CCCCCCCCCCCCCCCCSc1nc(NCCN(C)C)nc(SCCCCCCCCCCCCCCC)n1 [Compound S15S16D1]	1.7	0.7
CCCCCCCCCCCCCCCSc1nc(NCCCN2CCN(C)CC2)nc(SCCCCCCCCCCCCCCC)n1 [Compound S15S15D9]	0.4	0.5
CCCCCCCCCCCCCCCSc1nc(NCCN2CCN(C)CC2)nc(SCCCCCCCCCC)n1 [Compound S10S15D5]	3.7	9.4
CCCCCCCCCCCCCCCCSc1nc(NCCN(C)C)nc(SCCCCCCCCCCCC)n1 [Compound S12S16D1]	0.6	0.0
CCCCCCCCCCSc1nc(NCCCN(C)C)nc(SCCCCCCCCCC)n1 [Compound S10S10D6]	23.6	59.1
CCCCCCCCCCCCCCSc1nc(NCCCN(C)C)nc(SCCCCCCCCCCC)n1 [Compound S11S14D6]	6.6	30.0
CCCCCCCCCCSc1nc(NCCN2CCOCC2)nc(SCCCCCCCCC)n1 [Compound S9S10D2]	10.7	2.5
CCCCCCCCCCCCN(CCCCCCCCCCCC)c1nc(NCCCCCCC)nc(NCCN2CCCC2)n1 [N7^2N12D3]	2.5	6.8
CCCCCCCCCCCCCCCNc1nc(NCCCCCC)nc(NCCN(C)C)n1 [Compound N6N15D1]	0.0	0.0
CCCCCCCCCCCCCCCCSc1nc(NCCCN(C)C)nc(SCCCCCCCCCCCC)n1 [Compound S12S16D6]	2.7	1.2
CCCCCCCCCCCCCCCNc1nc(NCCCCCCCCCCCC)nc(NCCN2CCOCC2)n1 [Compound N12N15D2]	0.3	0.4
CCCCCCCCCCCCNc1nc(NCCCCCCC)nc(NCCCN(C)C)n1 [Compound N7N12D6]	0.4	0.2

Source: patent US20230123334A1, “AMINO LIPID COMPOUND, PREPARATION METHOD THEREFOR, AND APPLICATION THEREOF” (SHENZHEN SHENXIN BIOTECHNOLOGY CO., LTD., priority 2020, published 2023)
